Results: PubChem BioAssay (NCI)
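Method: 48-hour compound exposure of cells in 96-well plates, five concentrations, linear interpolation of endpoints. TGI is the concentration that stops growth completely.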

How the values were obtained:
Test in all cases: NCI tumour cell line growth inhibition, 48 h
[1] = test system: T-47D breast
[2] = test system: HCT-116 colon
[3] = test system: NCI-H23 lung
[4] = test system: HS 578T breast
[5] = test system: PC-3 prostate
[6] = test system: SF-539 CNS
[7] = test system: NCI/ADR-RES ovarian
[8] = test system: HCC-2998 colon
[9] = test system: A498 renal
[10] = test system: COLO 205 colon
[11] = test system: SK-MEL-28 melanoma
[12] = test system: DU-145 prostate
[13] = test system: ACHN renal
[14] = test system: U251 CNS
[15] = test system: HOP-92 NSCLC
[16] = test system: CCRF-CEM leukemia
[17] = test system: LOX IMVI melanoma
[18] = test system: NCI-H460 lung
[19] = test system: MDA-MB-435
[20] = test system: SNB-75 CNS
[21] = test system: BT-549 breast
[22] = test system: SF-268 CNS
[23] = test system: MALME-3M melanoma
[24] = test system: NCI-H522 lung
[25] = test system: EKVX NSCLC
[26] = test system: OVCAR-3 ovarian
[27] = test system: HT29 colon
[28] = test system: UACC-257 melanoma
[29] = test system: MDA-N
[30] = test system: RXF 393 renal
[31] = test system: MOLT-4 leukemia
[32] = test system: OVCAR-4 ovarian
[33] = test system: HL-60(TB) leukemia
[34] = test system: SNB-19 CNS
[35] = test system: K-562 leukemia
[36] = test system: OVCAR-8 ovarian
[37] = test system: OVCAR-5 ovarian
[38] = test system: SK-MEL-5 melanoma
[39] = test system: IGROV1 ovarian
[40] = test system: HOP-62 NSCLC
[41] = test system: UACC-62 melanoma
[42] = test system: RPMI-8226 leukemia
[43] = test system: NCI-H226 lung
[44] = test system: CAKI-1 renal
[45] = test system: TK-10 renal
[46] = test system: SF-295 CNS
[47] = test system: 786-0 renal
[48] = test system: SW-620 colon
[49] = test system: MCF7 breast
[50] = test system: SN12C renal
[51] = test system: M14 melanoma
[52] = test system: HCT-15 colon
[53] = test system: KM12 colon
[54] = test system: A549 NSCLC
[55] = test system: UO-31 renal
[56] = test system: SK-OV-3 ovarian
[57] = test system: MDA-MB-231 breast
[58] = test system: SK-MEL-2 melanoma

COc1ccc(N=NC(=O)NC(CC(C)C)C(=O)NC(CC(C)C)C(=O)O)cc1 (stereo unspecified)
TGI [1]: > 100 µM | TGI [2]: > 100 µM | TGI [3]: > 100 µM | TGI [4]: > 100 µM | TGI [5]: > 100 µM | TGI [6]: 57.6 µM | TGI [7]: > 100 µM | TGI [8]: > 100 µM | TGI [9]: > 100 µM | TGI [10]: 49.5 µM | TGI [11]: > 100 µM | TGI [12]: > 100 µM | TGI [13]: 80.2 µM | TGI [14]: > 100 µM | TGI [15]: > 100 µM | TGI [16]: > 100 µM | TGI [17]: > 100 µM | TGI [18]: > 100 µM | TGI [19]: > 100 µM | TGI [20]: > 100 µM | TGI [21]: > 100 µM | TGI [22]: > 100 µM | TGI [23]: > 100 µM | TGI [24]: > 100 µM | TGI [25]: > 100 µM | TGI [26]: > 100 µM | TGI [27]: > 100 µM | TGI [28]: > 100 µM | TGI [29]: > 100 µM | TGI [30]: > 100 µM | TGI [31]: > 100 µM | TGI [32]: > 100 µM | TGI [33]: > 100 µM | TGI [34]: > 100 µM | TGI [35]: 80.3 µM | TGI [36]: > 100 µM | TGI [37]: > 100 µM | TGI [38]: > 100 µM | TGI [39]: > 100 µM | TGI [40]: > 100 µM | TGI [41]: > 100 µM | TGI [42]: > 100 µM | TGI [43]: > 100 µM | TGI [44]: > 100 µM | TGI [45]: > 100 µM | TGI [46]: > 100 µM | TGI [47]: > 100 µM | TGI [48]: > 100 µM | TGI [49]: > 100 µM | TGI [50]: > 100 µM | TGI [51]: > 100 µM | TGI [52]: > 100 µM | TGI [53]: > 100 µM | TGI [54]: > 100 µM | TGI [55]: > 100 µM

NC12CC3C4CC5(N)CC3C(C1)C(C5)C4C2
TGI [1]: > 100 µM | TGI [2]: > 100 µM | TGI [3]: > 100 µM | TGI [4]: > 100 µM | TGI [5]: > 100 µM | TGI [56]: > 100 µM | TGI [7]: > 100 µM | TGI [9]: > 100 µM | TGI [10]: > 100 µM | TGI [11]: > 100 µM | TGI [13]: > 100 µM | TGI [57]: > 100 µM | TGI [14]: > 100 µM | TGI [15]: > 100 µM | TGI [16]: > 100 µM | TGI [17]: > 100 µM | TGI [18]: > 100 µM | TGI [19]: > 100 µM | TGI [21]: > 100 µM | TGI [22]: > 100 µM | TGI [23]: > 100 µM | TGI [24]: > 100 µM | TGI [25]: > 100 µM | TGI [26]: > 100 µM | TGI [27]: > 100 µM | TGI [28]: > 100 µM | TGI [29]: > 100 µM | TGI [30]: > 100 µM | TGI [31]: > 100 µM | TGI [32]: > 100 µM | TGI [33]: > 100 µM | TGI [34]: > 100 µM | TGI [35]: > 100 µM | TGI [36]: > 100 µM | TGI [37]: > 100 µM | TGI [38]: > 100 µM | TGI [39]: > 100 µM | TGI [40]: > 100 µM | TGI [41]: > 100 µM | TGI [43]: > 100 µM | TGI [44]: > 100 µM | TGI [45]: > 100 µM | TGI [46]: > 100 µM | TGI [47]: > 100 µM | TGI [48]: > 100 µM | TGI [49]: > 100 µM | TGI [50]: > 100 µM | TGI [58]: > 100 µM | TGI [51]: > 100 µM | TGI [52]: > 100 µM | TGI [53]: > 100 µM | TGI [54]: > 100 µM | TGI [55]: > 100 µM

COc1cc(/C=N/NC(=O)c2c(Cl)c(Cl)c(Cl)c(Cl)c2-c2nc3ccccc3[nH]2)ccc1O
TGI [1]: 15.9 µM | TGI [2]: 43.6 µM | TGI [3]: 55.3 µM | TGI [4]: > 100 µM | TGI [5]: > 100 µM | TGI [56]: > 100 µM | TGI [6]: > 100 µM | TGI [7]: > 100 µM | TGI [8]: 33.5 µM | TGI [9]: 61.4 µM | TGI [10]: 73 µM | TGI [11]: > 100 µM | TGI [12]: 56.5 µM | TGI [13]: 62.5 µM | TGI [15]: 33.4 µM | TGI [16]: > 100 µM | TGI [17]: 61.1 µM | TGI [18]: 57 µM | TGI [19]: 91.7 µM | TGI [20]: 60.5 µM | TGI [21]: 67.2 µM | TGI [22]: > 100 µM | TGI [23]: 52.9 µM | TGI [24]: > 100 µM | TGI [25]: 82.6 µM | TGI [26]: > 100 µM | TGI [27]: 62.9 µM | TGI [28]: 87.6 µM | TGI [29]: 75.7 µM | TGI [30]: 46.4 µM | TGI [31]: > 100 µM | TGI [33]: 53.2 µM | TGI [34]: > 100 µM | TGI [35]: > 100 µM | TGI [36]: > 100 µM | TGI [37]: 86.7 µM | TGI [38]: 34.2 µM | TGI [39]: > 100 µM | TGI [40]: 75.8 µM | TGI [41]: 32.4 µM | TGI [43]: 87.6 µM | TGI [44]: 49.8 µM | TGI [46]: > 100 µM | TGI [47]: > 100 µM | TGI [48]: > 100 µM | TGI [49]: 44.7 µM | TGI [50]: > 100 µM | TGI [58]: 41.1 µM | TGI [51]: 90.9 µM | TGI [52]: 79.2 µM | TGI [53]: 74.9 µM | TGI [54]: > 100 µM | TGI [55]: > 100 µM
